The values below come from US20100172870A1, “METHODS, USES AND COMPOSITIONS FOR MODULATING REPLICATION OF HCV THROUGH THE FARNESOID X RECEPTOR (FXR) ACTIVATION OR INHIBITION” (priority 2006, published 2010).

pIC50: −log10 of the molar value. Some results are limits rather than exact numbers.

In data set [1] the test system is genotype 1b replicon (R1b). Put plainly: HCV subgenomic replicon R1b luciferase assay. It is filed as cell-based, hepatitis C virus (HCV). From the text: Replicons: Three subgenomic replicons were used in this study: two replicative forms called R1a and R1b according to their genotype origin and a derivative of the R1b replicon with a mutation in the RNA-dependant RNA polymerase (Rp-del) which is thus unable to replicate and was used as a negative control in all experiments. They are bicistronic RNAs which contains the firefly luciferase (Photinus pyralis) reporter gene downstream of the HCV IRES and the sequence coding for the polyprotein NS3 to NS5B downstream of the encephalomyocarditis virus (EMCV) IRES.
RNA transfection: The replicons were transfected into Huh7 cells by electroporation.
Subconfluent monolayers of Huh7 cells were detached from the culture dish by trypsin treatment and rinsing with complete DMEM. […] 400 μL of the cell suspension was mixed by gentle pipetting with 8 μg RNA (R1a, R1b or Rp-del) and transferred into an electroporation cuvette with a gap-width of 0.4 cm (BioRad). The mixture was immediately subjected to one electric pulse at 270 V, 950 μF and maximum resistance using a Gene Pulser System (BioRad).
After electroporation the 400 μL of each cell suspension was diluted in 9 mL complete DMEM and pooled together before being seeded onto 24-well plates (1 mL per well).
Luciferase Assay: Cells were washed with PBS and scraped off the plate with 80 μL of 1× Luciferase Cell Culture Lysis Reagent (Promega). 40 μL of the lysate were transferred to a 96-well plate and mixed with 200 μL of Luciferase Assay Reagent (Promega). Luminescence expressed as relative light units (RLU) was measured immediately on a scintillation counter (Top Count NXT, Perkin Elmer) for 10 s.
(§1) The data are averages from triplicate cultures. […] The values are expressed as relative ratios of the values obtained 4 h after electroporation. Unless otherwise stated, the RLU values were determined 72 h after transfection when cells were confluent.

In data set [2] the test system is genotype 1a replicon (R1a). Put plainly: HCV subgenomic replicon R1a luciferase assay. It is filed as cell-based, hepatitis C virus (HCV). Conditions: Huh7-Lunet cells, 72 h of treatment, CDCA 100 μM or GGS 10 μM.
Excerpt: Replicons: Three subgenomic replicons were used in this study: two replicative forms called R1a and R1b according to their genotype origin and a derivative of the R1b replicon with a mutation in the RNA-dependant RNA polymerase (Rp-del) which is thus unable to replicate and was used as a negative control in all experiments. They are bicistronic RNAs which contains the firefly luciferase (Photinus pyralis) reporter gene downstream of the HCV IRES and the sequence coding for the polyprotein NS3 to NS5B downstream of the encephalomyocarditis virus (EMCV) IRES. […]
Subconfluent monolayers of Huh7 cells were detached from the culture dish by trypsin treatment and rinsing with complete DMEM. The cells were washed once with phosphate buffer saline (PBS), counted and resuspended at 10^7 cells per mL in Cytomix buffer (Van den Hoff, M J. Et al. 1992). […]
Luciferase Assay: Cells were washed with PBS and scraped off the plate with 80 μL of 1× Luciferase Cell Culture Lysis Reagent (Promega). […] Luminescence expressed as relative light units (RLU) was measured immediately on a scintillation counter (Top Count NXT, Perkin Elmer) for 10 s.
as §1

In data set [3] the test system is non-structural proteins NS4a and NS5a in R1b-transfected cells. Put plainly: HCV protein expression by immunofluorescence staining and FACS analysis. It is filed as cell-based, hepatitis C virus (HCV). Conditions: for NS5a positive cells by FACS analysis: 3 days of treatment (untreated 22%); for mean fluorescence intensity in the positive cells: NS5a-labeling, 3 days (untreated 16). How it is done: Immunofluorescence staining: Three days after electroporation, cells were plated in 8-well chamber slides at a density of 5×10^4 cells per well. 24 hours after, slides were washed in PBS and fixed in ⅔ acetone-ethanol for 5 minutes at −20° C. followed by 50 minutes block in PBS-glycin 0.2M. Primary antibodies were added to the cells at a 1:500 dilution in PBS-glycin 0.2M for 1 h at room temperature. After 3 washes in PBS, fluorescein conjugated secondary antibodies (Jackson ImmunoResearch) were added to the cells at a 1:50 dilution in PBS-glycin 0.2M for 40 minutes at room temperature. In the meantime, cells were counterstained with Evans Blue (Merck).
FACS analysis: 72 h post-electroporation, single-cell suspension was prepared for FACS analysis. Briefly 0.8.10^6 cells were fixed and permeabilised for 15 min at room temperature with Cytofix/Cytoperm (PharMingen). Cells were stained for 30 min with primary antibodies at a 1:500 dilution in Perm/Wash Buffer (PharMingen). Bound monoclonal antibody was detected by incubation for 30 min at 4° C. with secondary antibody diluted 1:100 in Perm/Wash Buffer. The stained cells were resuspended in PBS prior to analysis using a FACSCalibur 3C (BD Biosciences).
In general terms: Flow cytometry measures light scatter and fluorescence of single cells or particles in a stream.

For data set [4], the system named is replicon transfected cells (Huh7). Description: Toxicity for Huh7 / replicon transfected cells. The class given is cell-based, human. The source says:
BAs, sterols and fatty acids are structurally related natural ligands of the NR1 family of nuclear receptors expressed in the liver and intestine. […] BAs were recently described as the natural ligands for FXR (Makishima M. et al. 2002; Parks D J. et al. 1999). To examine whether BAs were mediating their effects on HCV RNA replication through FXR we tested a panel of FXR ligands including the two formerly described FXR ligands that activate FXR at supraphysiological concentrations, farnesol and the synthetic retinoid TTNPB at a concentration of 10 μM each and other BAs such as CA, LCA, and UDCA, all at a concentration of 100 μM (FIG. 4B).
(In general: Replicon systems follow genome replication, usually without infectious particles.)

A further data set concerns the target T1, FXR (Homo sapiens, UniProt Q96RI1).
T1 construct: host or cells: HepG2
T1 sequence (Q96RI1 1-486): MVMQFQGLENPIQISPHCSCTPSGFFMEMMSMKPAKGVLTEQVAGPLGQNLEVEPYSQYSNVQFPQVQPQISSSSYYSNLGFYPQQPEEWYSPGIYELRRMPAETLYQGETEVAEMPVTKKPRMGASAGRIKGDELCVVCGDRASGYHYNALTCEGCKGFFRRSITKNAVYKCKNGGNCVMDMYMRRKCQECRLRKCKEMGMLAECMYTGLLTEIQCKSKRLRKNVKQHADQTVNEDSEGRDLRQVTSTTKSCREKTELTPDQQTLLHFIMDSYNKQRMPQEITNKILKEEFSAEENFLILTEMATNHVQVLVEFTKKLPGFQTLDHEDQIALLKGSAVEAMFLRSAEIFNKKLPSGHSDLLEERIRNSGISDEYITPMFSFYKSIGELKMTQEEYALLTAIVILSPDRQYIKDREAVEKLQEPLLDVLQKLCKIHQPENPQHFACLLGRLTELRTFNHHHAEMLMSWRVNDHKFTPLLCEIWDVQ
The settings on record: Urizar N L. et al. 2002, cited from earlier work.

Consider `CC(C)CCC(O)[C@@H](C)[C@H]1CC[C@H]2[C@@H]3CC=C4C[C@@H](O)CC[C@]4(C)[C@H]3CC[C@]12C` (some centres unmarked) [22-hydroxycholesterol], for which the “effect on luciferase activity at 5 μM” value in data set [1] (Huh7 cells, 72 h (FIG. 4B)) is listed as “did not show any effect on replication”.
Regarding `C[C@H](CCC(=O)O)[C@H]1CC[C@H]2[C@@H]3[C@H](O)C[C@@H]4C[C@H](O)CC[C@]4(C)[C@H]3CC[C@]12C` [CDCA, chenodeoxycholic acid], the “effect on luciferase activity at 100 μM” value in data set [1] (Huh7 cells, 72 h (FIG. 4B)) is recorded as “most potent activator”. The “effect on luciferase activity, dose-response” value in data set [1] (Huh7 cells, 10, 50 or 100 μM, 72 h) is listed as “dose-dependent”. Moreover, in data set [1] (Huh7 cells, 72 h), the “concentration reaching maximum level of luciferase activity” value came to 100 µM and the “lowest concentration with detectable specific activity on luciferase” value stood at 10 µM. For the same compound, in data set [1] (Huh7 cells, dose-response, 72 h), the “up-regulation of HCV RNA replication, comparison of free BAs” value is “more efficiently than DCA”. Moreover, the “response of genotype 1a replicon to FXR-modulation” value in data set [2] is reported as “same behaviour as genotype 1b”. In data set [3], the “NS5a positive cells by FACS analysis” value is listed as 27% and the “mean fluorescence intensity in the positive cells” value was 39.
Turning to `C[C@H](CCC(=O)O)[C@H]1CC[C@H]2[C@@H]3[C@H](O)C[C@@H]4C[C@H](O)CC[C@]4(C)[C@H]3C[C@H](O)[C@]12C` [CA, cholic acid], the “effect on luciferase activity at 100 μM” value in data set [1] (Huh7 cells, 72 h (FIG. 4B)) is listed as “only weak activity”.
Regarding `CC(C)=CCCC(C)=CCCC(C)=CCO` [farnesol], the “effect on luciferase activity at 10 μM” value in data set [1] (Huh7 cells, 72 h (FIG. 4B)) was “slightly increased”.
As for `CC(=O)[C@H]1CC[C@H]2[C@@H]3CCC4=CC(=O)CC[C@]4(C)[C@H]3CC[C@]12C` [progesterone], in data set [1] (Huh7 cells, 72 h (FIG. 4B)), the “effect on luciferase activity at 5 μM” value was “None of these compounds induced any upregulation of the luciferase activity”.
Regarding `CC(C)CCC[C@@H](C)[C@H]1CC[C@H]2[C@@H]3CC=C4C[C@@H](O)CC[C@]4(C)[C@H]3CC[C@]12C` [cholesterol], in data set [1] (Huh7 cells, 72 h (FIG. 4B)), the “effect on luciferase activity at 10 μM” value is reported as “did not show any effect on replication”.
As to `C[C@H](CCC(=O)O)[C@H]1CC[C@H]2[C@@H]3CC[C@@H]4C[C@H](O)CC[C@]4(C)[C@H]3C[C@H](O)[C@]12C` [DCA, deoxycholic acid], the “concentration reaching maximum level of luciferase activity” value in data set [1] (Huh7 cells, 72 h) is 100 µM. For the same compound, the “increase of luciferase activity” value in data set [1] (Huh7 cells, DCA 100 μM, 72 h of treatment, vs untreated R1b cells) was determined as 15 fold. Also, the “time over which high levels of luciferase activities could be maintained” value in data set [1] (Huh7 cells, DCA 100 μM, long-term culture with passages every 3 or 4 days) is given as “more than 2 weeks”. Also, the “mortality of treated cells compared to untreated” value in data set [4] (Huh7 cells, 100 μM) is on record as “No increase in the mortality”.
Consider `C[C@H](CCCC(C)(C)O)[C@H]1CC[C@H]2[C@@H]3CC=C4C[C@@H](O)CC[C@]4(C)[C@H]3CC[C@]12C` [25-hydroxycholesterol], for which the “effect on luciferase activity at 1 μM” value in data set [1] (Huh7 cells, 1 μM, 72 h (FIG. 4B)) is “did not show any effect on replication”.
As usually defined, the inhibition is the percentage by which the read-out fell short of the control. On to `C/C=C1\C(=O)CC2C3CCC4=CC(=O)CC[C@]4(C)C3CC[C@]12C` (stereo partly drawn) [GGS, trans-4,17(20)-pregnadiene-3,16-dione], for which, in data set [1] (Hepatitis C virus, Huh-7, Huh7-Lunet cells, 20 μM, 72 h, read-out: inhibition of the replication), the inhibition at 20 µM is at most 95%. The pIC50 in data set [1] (Hepatitis C virus, Huh-7, Huh7-Lunet cells, basal replication, 72 h, read-out: inhibitory concentration causing a decrease of half the basal activity (IC50)) is around 5.70. The “inhibition of the effect of CDCA on replication” value in data set [1] (Huh7-Lunet cells, CDCA 100 μM, guggulsterone 0.01 μM up to 20 μM, 72 h) is reported as “inhibited in a dose-dependent fashion”. Further, in data set [1] (Huh7-Lunet cells, GGS 10 μM plus IFN, 72 h), the “further decrease of luciferase activity when associated to a given concentration of IFN” value was “about 10 fold”. For the same compound, in data set [1] (Huh7-Lunet cells, absence of BAs stimulation, 72 h), the “inhibition of the basal replication of HCV” value is on record as “could also inhibit the basal replication”. Moreover, the “response of genotype 1a replicon to FXR-modulation” value in data set [2] was “same behaviour as genotype 1b”. The “effect of GGS alone on FXR activity” value on FXR (HepG2 cells, bile salt export pump promoter-driven luciferase construct) is “had no effect”. Also, the “concentration range antagonizing FXR” value at FXR is recorded as “micromolar range”. The “NS4a and NS5a expression” value in data set [3] (3 days of treatment) is given as “almost completely abolished”. Moreover, in data set [3], the “NS5a positive cells by FACS analysis” value is given as 4% and the “mean fluorescence intensity in the positive cells” value is reported as “very weak fluorescence intensity”. Also, in data set [4] (replicon transfected cells), the “concentrations toxic for the replicon transfected cells” value came to 40 µM.
For `CC(=O)[C@H]1CC[C@H]2[C@@H]3CC=C4C[C@@H](O)CC[C@]4(C)[C@H]3CC[C@]12C` [pregnenolone], the “effect on luciferase activity at 10 μM” value in data set [1] (Huh7 cells, 72 h (FIG. 4B)) was “None of these compounds induced any upregulation of the luciferase activity”.
Same read-out and setting: then `C/C(=C\c1ccc(C(=O)O)cc1)c1ccc2c(c1)C(C)(C)CCC2(C)C` [TTNPB, (E)-[(tetrahydrotetramethylnaphthalenyl)propenyl]benzoic acid], with “slightly increased”.
